Measured values as given in patent US20190053489A1, “ANTIMICROBIAL COMPOSITION” (NATIONAL UNIVERSITY CORPORATION TOKYO MEDICAL AND DENTAL …, priority 2016, published 2019).

Columns and labels:
[1] = system: Mycobacterium avium Chester JCM15429; assay: Proliferation suppression against pulmonary MAC in a diluted medium (OD600); assay type: cell-based
Method: This test employed Mycobacterium avium Chester JCM15429, and this microbe strain was cultured in a Middlebrook 7H9 medium at 37° C. for 2 weeks. The cultured microbial solution was collected by centrifugation (3000 rpm, 10 minutes), suspended with sterilized water, and then diluted with sterilized water so that the optical density would satisfy OD600 =1.0. The resultant was diluted 2000 times (corresponding to 10^6 CFU/ml) to prepare a reaction microbial solution.
Each of the Middlebrook 7H9 test medium samples was added with 100 μl of reaction microbial solution and was statically cultured under the condition of 37° C. Here, the Middlebrook 7H9 test medium samples were prepared using 10 ml of 1/2.5 Middlebrook 7H9 medium added with
(1) 10 ml of sterilized water, (2) 10 ml of the lysozyme-chitosan complex with a concentration of 0.002% (the concentration after addition was […]), (3) 10 ml of the lysozyme-chitosan complex with a concentration of 0.02% (the concentration after addition was 0.01%), (4) 10 ml of the lysozyme-chitosan complex with a concentration of 0.2% (the concentration after addition was 0.1%), (5) 10 ml of lysozyme alone with a concentration of 0.1% (the concentration after addition was 0.05%), (6) 10 ml of chitosan alone with a concentration of 0.1% (the concentration after addition was 0.05%), and (7) 10 ml of the mixture of lysozyme and chitosan with a concentration of 0.1% (the concentration of each after addition was 0.05%).
After that, 3 ml was extracted at time intervals (0, 5, 7, and 12 days), and the optical density was measured at an absorption wavelength of 600 nm. In addition, 100 μl was extracted when necessary and seeded on the Middlebrook 7H10 agar medium, and the number of colonies produced was observed.

[2] = system: Micrococcus luteus bacteria; assay: Heat resistance evaluation by bacteriolytic test; assay type: physicochemical; settings: 80° C. for 2 hours; ΔOD at 10 minutes with vs without heating; complex 5%, lysozyme 2.5% aqueous solution; FIG. 6(D)
Method: This test is a bacteriolytic test using Micrococcus luteus bacteria being lysozyme-sensitive bacteria. Note that the bacteriolytic activity is an activity specific to lysozyme. Lysozyme is a protein relatively stable against heat. However, it is known that this activity generally decreases considerably for lysozyme heated at 80° C. for 30 minutes.
This test employed an aqueous solution of the lysozyme-chitosan complex with a concentration of 5%, an aqueous solution of lysozyme with a concentration of 2.5%, and an aqueous solution of the mixture of lysozyme and chitosan with a concentration of […]. In addition, Micrococcus luteus bacteria manufactured by Wako Pure Chemical Industries, Ltd. were used as the use bacteria.
First, 1 g of Micrococcus luteus bacteria was weighed on the day before the test, added to 100 ml of physiological saline, and stirred overnight at 4° C. […]
In an optical density meter, 2800 μl of the test microbial solution was set to record OD (0-1) immediately before the addition of the sample. […] Since OD increased here, the highest value OD (0-2) was recorded.
Timer measurement was started after the addition of the sample to record OD at the time of 2, 4, 6, 8, and 10 minutes passed. Each test was carried out twice, and the average was calculated.
With OD for (0-2) being OD at the time of the start, Δoptical density (AOD) at each point was calculated. […]

[3] = system: MRSA; assay: Observation of morphological change in MRSA by electron microscope; assay type: cell-based, Methicillin-Resistant Staphylococcus Aureus (MRSA)
Method: First, the morphological change in MRSA was observed by using a scanning electron microscope. This observation with a scanning electron microscope was carried out as follows: osmium coating (4 nm) was performed as the conductive treatment, and a low-acceleration ultra-high resolution scanning electron microscope (SU 9000 manufactured by Hitachi High-Technologies Corporation (accelerating voltage: 1 kV)) was used. In addition, the samples were MRSA added with physiological saline and MRSA added with a lysozyme-chitosan complex with a concentration of 0.2% by mass.
Next, the morphological change in MRSA was observed by using a transmission electron microscope. This observation with a transmission electron microscope was carried out as follows: the sample was sliced in 50 nm with a diamond knife as the pretreatment and was stained with uranium acetate and lead citrate, and a transmission electron microscope (JEM-1400 manufactured by JEOL Ltd.) was used. In addition, the samples were MRSA added with physiological saline and MRSA added with a lysozyme-chitosan complex with a concentration of 0.2% by mass.
Observation was carried out with a scanning electron microscope for the morphological changes in MRSA and pseudomonas aeruginosa treated with the lysozyme-chitosan complex, lysozyme alone, chitosan alone, and the mixture of lysozyme and chitosan (treatment time: 2 hours). This observation with a scanning electron microscope was carried out in the same manner as Example 8 described above: osmium coating (4 nm) was performed as the conductive treatment, and a low-acceleration ultra-high resolution scanning electron microscope (SU 9000 manufactured by Hitachi High-Technologies Corporation (accelerating voltage: 1 kV)) was used. In addition, the samples were MRSA or pseudomonas aeruginosa added with physiological saline, a lysozyme-chitosan complex with a concentration of 0.1% by mass, lysozyme of 0.05% by mass, chitosan of 0.05% by mass, and a mixture of lysozyme and chitosan, each with 0.05% by mass.

[4] = system: Pseudomonas aeruginosa PAO 1; assay: Proliferation suppression against pseudomonas aeruginosa PAO 1 in a standard medium (colony count method); assay type: cell-based; settings: standard TSB medium; colony count 6 hours later; complex 0.2%, others 0.1%; FIG. 10
From the text: This test employed Pseudomonas aeruginosa NBRC 13275 or PAO 1, and other procedures were the same as those of [Example 5] described earlier.
Note that the results of FIG. 9 are each the average value of the values obtained by carrying out the colony count method three times and that the results of FIG. 10 are each the average value of the values obtained by carrying out the colony count method five times.

Substance: lysozyme-chitosan complex: complex of lysozyme and water-soluble chitosan (molecular weight 14000 Da) bound to each other through the Maillard reaction
- proliferation suppression effect against pulmonary MAC over 7 days, medium with phosphate buffer ([1]; Middlebrook 7H9 test medium further added with 10 mM phosphate buffer (pH 7.0), FIG. 5): marked proliferation suppression effect
- proliferation suppression effect against pulmonary MAC, classified by concentration ([1]; diluted Middlebrook 7H9 medium, complex 0.0010, 0.01%, 0.1% after addition, FIG. 3): increased as the concentration of the lysozyme-chitosan complex increased
- proliferation suppression effect against pulmonary MAC over 7 days ([1]; diluted Middlebrook 7H9 medium, complex 0.1% vs lysozyme, chitosan, mixture 0.05% each, FIG. 4): marked proliferation suppression effect
- residual activity (bacteriolytic) after heating treatment [2]: 91.9%
- morphological change in MRSA, scanning electron microscope, treatment time 2 hours ([3]; complex 0.1% by mass, lysozyme 0.05%, chitosan 0.05%, mixture each 0.05%, FIG. 16): the form of MRSA has changed
- morphological change in MRSA, scanning electron microscope ([3]; complex 0.2% by mass, FIG. 13): fibrous adhesions have appeared on the outer surface of MRSA
- morphological change in MRSA, transmission electron microscope ([3]; complex 0.2% by mass, FIG. 14): fibrous structures (DNA) inside MRSA have disappeared
- proliferation suppression effect against PAO 1 [4]: marked improvement effect compared to lysozyme alone, chitosan alone, and the mixture of lysozyme and chitosan
